The values below come from patent publication US20260356819A1, “OXOISOINDOLINYL-SUBSTITUTED […] DERIVATIVE AND USE THEREOF” (GLUETACS THERAPEUTICS (SHANGHAI) CO., LTD., priority 2023, published 2026).

Holding throughout (type): cell-based
Common to all, as to conditions: compounds at 50 nM and 500 nM

One test deals with T1, WEE1 (Homo sapiens, UniProt P30291+Q96SW2).
T1 construct: The supernatant was aspirated as the extracted total cell protein; endogenous in cells; host or cells: human peripheral blood mononuclear cells (hPBMCs)
T1 sequence (P30291 whole entry): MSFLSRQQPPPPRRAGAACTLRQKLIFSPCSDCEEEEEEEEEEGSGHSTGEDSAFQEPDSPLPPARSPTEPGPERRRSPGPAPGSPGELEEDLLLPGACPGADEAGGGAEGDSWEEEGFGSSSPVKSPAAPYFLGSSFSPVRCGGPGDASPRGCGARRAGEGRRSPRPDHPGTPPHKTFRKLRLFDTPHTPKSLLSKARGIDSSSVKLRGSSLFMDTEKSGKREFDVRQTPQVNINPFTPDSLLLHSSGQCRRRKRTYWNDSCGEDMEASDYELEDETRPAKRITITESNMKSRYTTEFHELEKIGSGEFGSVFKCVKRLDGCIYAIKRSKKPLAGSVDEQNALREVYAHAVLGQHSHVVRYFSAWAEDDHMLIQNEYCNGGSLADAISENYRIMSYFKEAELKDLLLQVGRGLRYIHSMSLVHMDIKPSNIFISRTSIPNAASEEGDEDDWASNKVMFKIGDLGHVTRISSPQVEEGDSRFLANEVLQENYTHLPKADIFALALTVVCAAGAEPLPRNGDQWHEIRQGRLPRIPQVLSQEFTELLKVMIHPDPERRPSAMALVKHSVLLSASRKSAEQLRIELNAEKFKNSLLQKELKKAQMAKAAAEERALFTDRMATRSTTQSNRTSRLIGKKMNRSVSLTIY
T1 sequence (Q96SW2 whole entry): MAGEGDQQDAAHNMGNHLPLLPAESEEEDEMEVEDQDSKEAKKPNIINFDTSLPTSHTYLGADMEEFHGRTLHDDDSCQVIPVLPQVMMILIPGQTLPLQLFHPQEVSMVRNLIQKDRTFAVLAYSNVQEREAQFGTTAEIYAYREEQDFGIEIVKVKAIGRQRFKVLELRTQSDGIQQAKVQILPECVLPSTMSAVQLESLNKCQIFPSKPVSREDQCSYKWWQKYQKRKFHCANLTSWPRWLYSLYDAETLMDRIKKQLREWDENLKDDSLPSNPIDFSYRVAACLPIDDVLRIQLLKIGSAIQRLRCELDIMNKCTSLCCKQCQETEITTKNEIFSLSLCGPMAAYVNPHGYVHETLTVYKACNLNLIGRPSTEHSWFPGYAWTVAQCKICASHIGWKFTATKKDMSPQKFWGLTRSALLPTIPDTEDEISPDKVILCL
T1 sequence (Q16531 whole entry partner): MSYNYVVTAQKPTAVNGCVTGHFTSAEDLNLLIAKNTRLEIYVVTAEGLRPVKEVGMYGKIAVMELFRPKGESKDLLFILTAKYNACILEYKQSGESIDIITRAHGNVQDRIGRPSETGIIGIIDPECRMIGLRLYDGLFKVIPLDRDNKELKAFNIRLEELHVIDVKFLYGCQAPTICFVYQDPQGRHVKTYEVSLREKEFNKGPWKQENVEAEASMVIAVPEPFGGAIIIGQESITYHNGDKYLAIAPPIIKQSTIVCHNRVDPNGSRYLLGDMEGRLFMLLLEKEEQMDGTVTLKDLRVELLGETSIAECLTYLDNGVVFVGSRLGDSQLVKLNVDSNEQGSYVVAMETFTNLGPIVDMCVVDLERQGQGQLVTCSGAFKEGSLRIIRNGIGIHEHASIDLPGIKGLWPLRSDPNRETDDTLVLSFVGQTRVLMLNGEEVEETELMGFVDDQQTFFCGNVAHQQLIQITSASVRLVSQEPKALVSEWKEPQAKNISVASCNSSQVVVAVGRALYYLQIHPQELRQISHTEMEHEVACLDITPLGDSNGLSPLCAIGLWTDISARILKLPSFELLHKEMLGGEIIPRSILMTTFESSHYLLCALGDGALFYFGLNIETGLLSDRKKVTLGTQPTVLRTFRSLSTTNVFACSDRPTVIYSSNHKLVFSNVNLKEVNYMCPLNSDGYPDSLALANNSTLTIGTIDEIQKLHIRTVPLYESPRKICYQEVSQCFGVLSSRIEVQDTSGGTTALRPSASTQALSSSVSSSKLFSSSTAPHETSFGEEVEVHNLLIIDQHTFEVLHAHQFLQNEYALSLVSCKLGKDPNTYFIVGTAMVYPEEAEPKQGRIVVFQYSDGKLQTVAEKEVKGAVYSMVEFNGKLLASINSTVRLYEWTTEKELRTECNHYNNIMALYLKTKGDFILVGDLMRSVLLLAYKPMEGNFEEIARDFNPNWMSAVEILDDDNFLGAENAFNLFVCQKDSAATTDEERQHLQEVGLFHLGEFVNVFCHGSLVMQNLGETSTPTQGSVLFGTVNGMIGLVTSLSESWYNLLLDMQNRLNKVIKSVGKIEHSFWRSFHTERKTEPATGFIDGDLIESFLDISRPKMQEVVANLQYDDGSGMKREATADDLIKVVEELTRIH
Kind of test: Western blot degradation of WEE1 in hPBMCs (24 h). In outline: (§1)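 Read-out is Western blot band grayscale, divided by internal control band and normalised to give percent target protein remaining; degradation rate is 1 minus that value. Cells were human PBMCs exposed to compound at 50 nM and 500 nM for 24 hours.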
On the technique in general: In western blotting, separated proteins are transferred to a membrane and probed.

For the next test, the target named is T2, IKZF1 (Homo sapiens, UniProt Q13422+Q96SW2).
T2 construct: The supernatant was aspirated as the extracted total cell protein; endogenous in cells; host or cells: human peripheral blood mononuclear cells (hPBMCs)
T2 sequence (Q13422 whole entry): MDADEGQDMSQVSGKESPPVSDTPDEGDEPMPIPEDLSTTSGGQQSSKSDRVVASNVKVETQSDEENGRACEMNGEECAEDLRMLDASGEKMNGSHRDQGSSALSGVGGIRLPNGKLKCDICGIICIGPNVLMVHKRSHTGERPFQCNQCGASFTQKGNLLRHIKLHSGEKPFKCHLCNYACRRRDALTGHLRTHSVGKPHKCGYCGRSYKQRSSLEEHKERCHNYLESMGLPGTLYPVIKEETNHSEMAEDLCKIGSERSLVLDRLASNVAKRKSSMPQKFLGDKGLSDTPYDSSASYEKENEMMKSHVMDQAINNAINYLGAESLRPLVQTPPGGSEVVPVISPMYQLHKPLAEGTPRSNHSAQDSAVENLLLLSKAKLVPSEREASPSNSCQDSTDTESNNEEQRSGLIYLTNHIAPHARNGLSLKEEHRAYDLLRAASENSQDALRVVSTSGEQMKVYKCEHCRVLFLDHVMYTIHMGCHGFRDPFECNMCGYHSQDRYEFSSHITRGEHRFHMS
T2 sequence (Q96SW2 whole entry): as the sequence (Q96SW2 whole entry) above
T2 sequence (Q16531 whole entry partner): as the sequence (Q16531 whole entry partner) above
Put plainly: Western blot degradation of IKZF1 in hPBMCs (24 h). The gist of the method: as §1

For the next test, the target named is T3, IKZF2 (Homo sapiens, UniProt Q96SW2+Q9UKS7).
T3 construct: The supernatant was aspirated as the extracted total cell protein; endogenous in cells; host or cells: human peripheral blood mononuclear cells (hPBMCs)
T3 sequence (Q9UKS7 whole entry): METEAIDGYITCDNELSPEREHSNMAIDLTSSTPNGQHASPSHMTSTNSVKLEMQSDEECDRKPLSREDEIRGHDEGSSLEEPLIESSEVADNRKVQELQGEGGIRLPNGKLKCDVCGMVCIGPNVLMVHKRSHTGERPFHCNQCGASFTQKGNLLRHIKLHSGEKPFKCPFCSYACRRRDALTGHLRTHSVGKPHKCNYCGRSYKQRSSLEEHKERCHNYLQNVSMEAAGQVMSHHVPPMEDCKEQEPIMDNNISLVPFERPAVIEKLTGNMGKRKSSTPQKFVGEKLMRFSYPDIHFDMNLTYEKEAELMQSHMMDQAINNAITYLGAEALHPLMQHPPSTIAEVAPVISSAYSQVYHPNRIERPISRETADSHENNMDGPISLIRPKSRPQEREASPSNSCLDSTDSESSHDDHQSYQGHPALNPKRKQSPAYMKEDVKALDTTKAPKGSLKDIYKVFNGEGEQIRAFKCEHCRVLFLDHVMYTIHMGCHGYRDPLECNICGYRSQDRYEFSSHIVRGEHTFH
T3 sequence (Q96SW2 whole entry): as the sequence (Q96SW2 whole entry) above
T3 sequence (Q16531 whole entry partner): as the sequence (Q16531 whole entry partner) above
Kind of test: Western blot degradation of IKZF2 in hPBMCs (24 h). In outline: as §1

For another test, the target named is T4, IKZF3 (Homo sapiens, UniProt Q96SW2+Q9UKT9).
T4 construct: The supernatant was aspirated as the extracted total cell protein; endogenous in cells; host or cells: human peripheral blood mononuclear cells (hPBMCs)
T4 sequence (Q9UKT9 whole entry): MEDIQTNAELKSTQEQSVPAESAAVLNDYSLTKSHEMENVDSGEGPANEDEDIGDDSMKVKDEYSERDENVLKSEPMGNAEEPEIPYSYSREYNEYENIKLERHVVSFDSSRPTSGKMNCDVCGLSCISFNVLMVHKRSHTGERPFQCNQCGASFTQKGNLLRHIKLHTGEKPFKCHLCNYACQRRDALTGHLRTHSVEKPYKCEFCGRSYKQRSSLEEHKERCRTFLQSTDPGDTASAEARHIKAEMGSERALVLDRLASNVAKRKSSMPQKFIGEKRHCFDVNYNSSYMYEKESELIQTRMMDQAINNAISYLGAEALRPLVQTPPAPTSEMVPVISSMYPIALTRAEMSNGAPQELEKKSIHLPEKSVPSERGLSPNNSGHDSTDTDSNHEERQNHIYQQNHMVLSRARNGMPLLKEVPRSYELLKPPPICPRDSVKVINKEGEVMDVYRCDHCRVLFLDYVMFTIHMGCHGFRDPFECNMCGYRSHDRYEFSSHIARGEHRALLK
T4 sequence (Q96SW2 whole entry): as the sequence (Q96SW2 whole entry) above
T4 sequence (Q16531 whole entry partner): as the sequence (Q16531 whole entry partner) above
Put plainly: Western blot degradation of IKZF3 in hPBMCs (24 h). In outline:
as §1

The target in another test is T5, CK1α (Homo sapiens, UniProt P48729+Q96SW2).
T5 construct: The supernatant was aspirated as the extracted total cell protein; endogenous in cells; host or cells: human peripheral blood mononuclear cells (hPBMCs)
Put plainly: Western blot degradation of CK1α in hPBMCs (24 h). The gist of the method:
as §1

The target of a further test is T6, GSPT1 (Homo sapiens, UniProt P15170+Q96SW2).
T6 construct: The supernatant was aspirated as the extracted total cell protein; endogenous in cells; host or cells: human peripheral blood mononuclear cells (hPBMCs)
T6 sequence (P15170 whole entry): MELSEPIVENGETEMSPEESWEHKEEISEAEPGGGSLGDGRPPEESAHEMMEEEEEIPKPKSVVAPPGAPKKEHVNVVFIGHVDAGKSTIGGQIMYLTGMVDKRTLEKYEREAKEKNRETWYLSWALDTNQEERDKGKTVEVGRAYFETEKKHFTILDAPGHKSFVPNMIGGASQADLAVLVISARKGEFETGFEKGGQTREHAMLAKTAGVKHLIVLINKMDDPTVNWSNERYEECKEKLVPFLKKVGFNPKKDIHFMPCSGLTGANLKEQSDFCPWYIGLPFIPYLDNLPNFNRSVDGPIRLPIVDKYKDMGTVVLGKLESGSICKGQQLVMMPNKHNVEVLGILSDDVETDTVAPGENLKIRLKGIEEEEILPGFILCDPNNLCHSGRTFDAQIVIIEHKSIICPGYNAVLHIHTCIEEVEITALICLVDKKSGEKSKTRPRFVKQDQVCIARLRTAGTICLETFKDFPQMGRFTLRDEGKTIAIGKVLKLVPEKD
T6 sequence (Q96SW2 whole entry): as the sequence (Q96SW2 whole entry) above
T6 sequence (Q16531 whole entry partner): as the sequence (Q16531 whole entry partner) above
Kind of test: Western blot degradation of GSPT1 in hPBMCs (24 h). The gist of the method: as §1

With `O=C1CCN(N2Cc3cc(CN4CCN(c5cnnc(Cl)c5Cl)CC4)ccc3C2=O)C(=O)N1` [GT-07029, 1-(5-((4-(5,6-dichloropyridazin-4-yl)piperazin-1-yl)methyl)-1-oxoisoindolin-2-yl)dihydropyrimidine-2,4(1H,3H)-dione], the “WEE1 substrate protein remaining %” value on WEE1 was “A (0% ≤ substrate protein remaining % ≤80%)”. For the same compound, the “IKZF1 substrate protein remaining %” value at IKZF1 is “B (80%< substrate protein remaining % ≤100%)”. In addition, on IKZF2, the “IKZF2 substrate protein remaining %” value is given as “A (0% ≤ substrate protein remaining % ≤80%)”. Besides, the “IKZF3 substrate protein remaining %” value on IKZF3 is listed as “B (80%< substrate protein remaining % ≤100%)”. For the same compound, the “CK1α substrate protein remaining %” value at CK1α is “B (80%< substrate protein remaining % ≤100%)”. Besides, the “GSPT1 substrate protein remaining %” value at GSPT1 is reported as “A (0% ≤ substrate protein remaining % ≤80%)”.
For the compound `O=C1CCN(N2Cc3cc(CN4CCN(c5cc(Cl)nnc5Cl)CC4)ccc3C2=O)C(=O)N1` [GT-07030, 1-(5-((4-(3,6-dichloropyridazin-4-yl)piperazin-1-yl)methyl)-1-oxoisoindolin-2-yl)dihydropyrimidine-2,4(1H,3H)-dione], the “WEE1 substrate protein remaining %” value on WEE1 is “B (80%< substrate protein remaining % ≤100%)”. Besides, the “IKZF1 substrate protein remaining %” value at IKZF1 is on record as “B (80%< substrate protein remaining % ≤100%)”. Further, the “IKZF2 substrate protein remaining %” value at IKZF2 is “A (0% ≤ substrate protein remaining % ≤80%)”. Besides, the “IKZF3 substrate protein remaining %” value at IKZF3 is listed as “B (80%< substrate protein remaining % ≤100%)”. Besides, the “CK1α substrate protein remaining %” value at CK1α is reported as “B (80%< substrate protein remaining % ≤100%)”. For the same compound, the “GSPT1 substrate protein remaining %” value at GSPT1 is listed as “B (80%< substrate protein remaining % ≤100%)”.
Consider `O=C1CCN(N2Cc3cc(CN4CCN(c5ncncn5)CC4)ccc3C2=O)C(=O)N1` [GT-07031, 1-(5-((4-(1,3,5-triazin-2-yl)piperazin-1-yl)methyl)-1-oxoisoindolin-2-yl)dihydropyrimidine-2,4(1H,3H)-dione], for which the “WEE1 substrate protein remaining %” value at WEE1 was “B (80%< substrate protein remaining % ≤100%)”. Also, the “IKZF1 substrate protein remaining %” value at IKZF1 is given as “A (0% ≤ substrate protein remaining % ≤80%)”. The “IKZF2 substrate protein remaining %” value on IKZF2 is “B (80%< substrate protein remaining % ≤100%)”. Further, the “IKZF3 substrate protein remaining %” value at IKZF3 is “A (0% ≤ substrate protein remaining % ≤80%)”. Further, the “CK1α substrate protein remaining %” value at CK1α is reported as “A (0% ≤ substrate protein remaining % ≤80%)”. Moreover, the “GSPT1 substrate protein remaining %” value at GSPT1 is “A (0% ≤ substrate protein remaining % ≤80%)”.
For the compound `O=C1CCN(N2Cc3cc(CN4CCN(c5c(Cl)cncc5Cl)CC4)ccc3C2=O)C(=O)N1` [GT-07032, 1-(5-((4-(3,5-dichloropyridin-4-yl)piperazin-1-yl)methyl)-1-oxoisoindolin-2-yl)dihydropyrimidine-2,4(1H,3H)-dione], on WEE1, the “WEE1 substrate protein remaining %” value is listed as “B (80%< substrate protein remaining % ≤100%)”. In addition, at IKZF1, the “IKZF1 substrate protein remaining %” value is listed as “B (80%< substrate protein remaining % ≤100%)”. For the same compound, on IKZF2, the “IKZF2 substrate protein remaining %” value is given as “B (80%< substrate protein remaining % ≤100%)”. Besides, the “IKZF3 substrate protein remaining %” value on IKZF3 is on record as “B (80%< substrate protein remaining % ≤100%)”. Moreover, the “CK1α substrate protein remaining %” value on CK1α is listed as “B (80%< substrate protein remaining % ≤100%)”. Moreover, the “GSPT1 substrate protein remaining %” value on GSPT1 is on record as “A (0% ≤ substrate protein remaining % ≤80%)”.
Turning to `Cc1cc(N2CCN(Cc3ccc4c(c3)CN(N3CCC(=O)NC3=O)C4=O)CC2)cc(C)n1` [GT-07033, 1-(5-((4-(2,6-dimethylpyridin-4-yl)piperazin-1-yl)methyl)-1-oxoisoindolin-2-yl)dihydropyrimidine-2,4(1H,3H)-dione], the “WEE1 substrate protein remaining %” value on WEE1 is given as “B (80%< substrate protein remaining % ≤100%)”. Further, the “IKZF1 substrate protein remaining %” value at IKZF1 is given as “B (80%< substrate protein remaining % ≤100%)”. On IKZF2, the “IKZF2 substrate protein remaining %” value is given as “B (80%< substrate protein remaining % ≤100%)”. Besides, the “IKZF3 substrate protein remaining %” value at IKZF3 is recorded as “B (80%< substrate protein remaining % ≤100%)”. On CK1α, the “CK1α substrate protein remaining %” value was “B (80%< substrate protein remaining % ≤100%)”. Also, the “GSPT1 substrate protein remaining %” value on GSPT1 is “A (0% ≤ substrate protein remaining % ≤80%)”.
For the compound `O=C1CCN(N2C(=O)c3ccc(CN4CCN(c5ncnc(Cl)c5Cl)CC4)cc3C2=O)C(=O)N1` [GT-07034, 5-((4-(5,6-dichloropyrimidin-4-yl)piperazin-1-yl)methyl)-2-(2,4-dioxotetrahydropyrimidin-1(2H)-yl)isoindoline-1,3-dione], at WEE1, the “WEE1 substrate protein remaining %” value is on record as “A (0% ≤ substrate protein remaining % ≤80%)”. Further, at IKZF1, the “IKZF1 substrate protein remaining %” value is listed as “A (0% ≤ substrate protein remaining % ≤80%)”. In addition, the “IKZF2 substrate protein remaining %” value at IKZF2 is given as “A (0% ≤ substrate protein remaining % ≤80%)”. The “IKZF3 substrate protein remaining %” value at IKZF3 is “A (0% ≤ substrate protein remaining % ≤80%)”. For the same compound, the “CK1α substrate protein remaining %” value at CK1α is “A (0% ≤ substrate protein remaining % ≤80%)”. Moreover, the “GSPT1 substrate protein remaining %” value on GSPT1 was “A (0% ≤ substrate protein remaining % ≤80%)”.
Regarding `O=C1CCN(N2C(=O)c3ccc(CN4CCN(c5cnnc(Cl)c5Cl)CC4)cc3C2=O)C(=O)N1` [GT-07035, 5-((4-(5,6-dichloropyridazin-4-yl)piperazin-1-yl)methyl)-2-(2,4-dioxotetrahydropyrimidin-1(2H)-yl)isoindoline-1,3-dione], the “WEE1 substrate protein remaining %” value on WEE1 is listed as “B (80%< substrate protein remaining % ≤100%)”. The “IKZF1 substrate protein remaining %” value on IKZF1 is “B (80%< substrate protein remaining % ≤100%)”. Besides, the “IKZF2 substrate protein remaining %” value on IKZF2 is reported as “B (80%< substrate protein remaining % ≤100%)”. Further, the “IKZF3 substrate protein remaining %” value on IKZF3 is “A (0% ≤ substrate protein remaining % ≤80%)”. Besides, at CK1α, the “CK1α substrate protein remaining %” value is on record as “A (0% ≤ substrate protein remaining % ≤80%)”. Also, the “GSPT1 substrate protein remaining %” value at GSPT1 was “A (0% ≤ substrate protein remaining % ≤80%)”.
Consider `O=C1CCN(N2C(=O)c3ccc(CN4CCN(c5cc(Cl)nnc5Cl)CC4)cc3C2=O)C(=O)N1` [GT-07036, 5-((4-(3,6-dichloropyridazin-4-yl)piperazin-1-yl)methyl)-2-(2,4-dioxotetrahydropyrimidin-1(2H)-yl)isoindoline-1,3-dione], for which, on WEE1, the “WEE1 substrate protein remaining %” value is on record as “B (80%< substrate protein remaining % ≤100%)”. Moreover, the “IKZF1 substrate protein remaining %” value on IKZF1 is on record as “B (80%< substrate protein remaining % ≤100%)”. In addition, the “IKZF2 substrate protein remaining %” value at IKZF2 was “B (80%< substrate protein remaining % ≤100%)”. For the same compound, the “IKZF3 substrate protein remaining %” value on IKZF3 was “B (80%< substrate protein remaining % ≤100%)”. For the same compound, the “CK1α substrate protein remaining %” value on CK1α is “B (80%< substrate protein remaining % ≤100%)”. In addition, the “GSPT1 substrate protein remaining %” value at GSPT1 is “A (0% ≤ substrate protein remaining % ≤80%)”.
`O=C1CCN(N2C(=O)c3ccc(CN4CCN(c5ncncn5)CC4)cc3C2=O)C(=O)N1` [GT-07037, 5-((4-(1,3,5-triazin-2-yl)piperazin-1-yl)methyl)-2-(2,4-dioxotetrahydropyrimidin-1(2H)-yl)isoindoline-1,3-dione]: the “WEE1 substrate protein remaining %” value on WEE1 is “B (80%< substrate protein remaining % ≤100%)”. On IKZF1, the “IKZF1 substrate protein remaining %” value is recorded as “B (80%< substrate protein remaining % ≤100%)”. For the same compound, the “IKZF2 substrate protein remaining %” value at IKZF2 is on record as “B (80%< substrate protein remaining % ≤100%)”. At IKZF3, the “IKZF3 substrate protein remaining %” value is “B (80%< substrate protein remaining % ≤100%)”. Further, the “CK1α substrate protein remaining %” value on CK1α is given as “B (80%< substrate protein remaining % ≤100%)”. For the same compound, on GSPT1, the “GSPT1 substrate protein remaining %” value is on record as “A (0% ≤ substrate protein remaining % ≤80%)”.
Turning to `O=C1CCN(N2C(=O)c3ccc(CN4CCN(c5c(Cl)cncc5Cl)CC4)cc3C2=O)C(=O)N1` [GT-07038, 5-((4-(3,5-dichloropyridin-4-yl)piperazin-1-yl)methyl)-2-(2,4-dioxotetrahydropyrimidin-1(2H)-yl)isoindoline-1,3-dione], at WEE1, the “WEE1 substrate protein remaining %” value is on record as “A (0% ≤ substrate protein remaining % ≤80%)”. In addition, the “IKZF1 substrate protein remaining %” value at IKZF1 is given as “A (0% ≤ substrate protein remaining % ≤80%)”. Also, at IKZF2, the “IKZF2 substrate protein remaining %” value was “A (0% ≤ substrate protein remaining % ≤80%)”. Moreover, the “IKZF3 substrate protein remaining %” value at IKZF3 is “A (0% ≤ substrate protein remaining % ≤80%)”. Also, the “CK1α substrate protein remaining %” value on CK1α was “A (0% ≤ substrate protein remaining % ≤80%)”. The “GSPT1 substrate protein remaining %” value at GSPT1 is reported as “A (0% ≤ substrate protein remaining % ≤80%)”.
For the compound `O=C1CCN(N2Cc3cc(CN4CCN(c5ccnc(Cl)c5F)CC4)ccc3C2=O)C(=O)N1` [GT-07069, 1-(5-((4-(2-chloro-3-fluoropyridin-4-yl)piperazin-1-yl)methyl)-1-oxoisoindolin-2-yl)dihydropyrimidine-2,4(1H,3H)-dione], at WEE1, the “WEE1 substrate protein remaining %” value is “A (0% ≤ substrate protein remaining % ≤80%)”. The “IKZF1 substrate protein remaining %” value on IKZF1 is on record as “B (80%< substrate protein remaining % ≤100%)”. Moreover, the “IKZF2 substrate protein remaining %” value on IKZF2 is listed as “B (80%< substrate protein remaining % ≤100%)”. Moreover, the “IKZF3 substrate protein remaining %” value on IKZF3 is reported as “B (80%< substrate protein remaining % ≤100%)”. For the same compound, the “CK1α substrate protein remaining %” value on CK1α was “B (80%< substrate protein remaining % ≤100%)”. For the same compound, the “GSPT1 substrate protein remaining %” value on GSPT1 is on record as “B (80%< substrate protein remaining % ≤100%)”.
